Some results are limits rather than exact numbers.

Turning to `O=C(c1ccc2[nH]ncc2c1)C1(CC2CC2)CCCN1` (centres unmarked), the melting point lay within 291 to 292 °C.

Consider `CCCC1(C(=O)c2ccc(Cl)c(Cl)c2)CCN1` (centres unmarked), for which the melting point lay within 252.6 to 254 °C.

As for `CCCC1(C(=O)c2cc(F)c(N)c(Cl)c2)CCNC1` (centres unmarked), the melting point was 65 to 67 °C.

`CC(C)CC1(C(=O)c2cc(F)c(Cl)c(Cl)c2)CCNCC1`: the melting point lay within 166 to 167 °C.

Compound `CCCC1(C(=O)c2ccc(O)c(Cl)c2)CCCNC1` (centres unmarked) gave a melting point of 265.6 to 266.9 °C.

Compound `COCC1(C(=O)c2ccc3[nH]ccc3c2)CCNC1` (centres unmarked) registered a melting point of 59.1 to 61 °C.

In turn, `O=C(c1ccc2[nH]ncc2c1)C1(CC2CCCC2)CCCN1` (centres unmarked) yielded a melting point of more than 300 °C.

Consider `CCCC1(C(=O)c2ccc(Cl)c(Cl)c2)CNC1`, for which the melting point fell in the range of 59 to 60 °C.

In general, melting point refers to the temperature of the solid-liquid transition.

For the origin of these results see patent US8084623B2, “Pyrrolidinyl and piperidinyl ketone derivatives and uses thereof” (Roche Palo Alto LLC, priority 2006, dated 2011).
